In ChEMBL document CHEMBL2390892, “Synthesis and cytotoxic activity on human cancer cells of carbamate derivatives of 4β-(1,2,3-triazol-1-yl)podophyllotoxin” (Eur J Med Chem, 2013):
Active and inactive are the calls of the source. No cut-off for these calls is given here.

Assays:
A549 [1] = experiment: Cytotoxicity against human A549 cells assessed as growth inhibition after 48 hrs by MTT assay; assay type: functional, cell-based; conditions: A549, 48 h
HCT-8 = experiment: Cytotoxicity against human HCT8 cells assessed as growth inhibition after 48 hrs by MTT assay; assay type: functional, cell-based; conditions: HCT-8, 48 h
HL-60 = experiment: Cytotoxicity against human HL60 cells assessed as growth inhibition after 48 hrs by CCK-8 assay; assay type: functional, cell-based; conditions: HL-60, 48 h
HeLa = experiment: Cytotoxicity against human HeLa cells assessed as growth inhibition after 48 hrs by MTT assay; assay type: functional, cell-based
[2] = Solubility of the compound in water; assay type: physicochemical; conditions: buffer
A549 [3] = experiment: Induction of apoptosis in human A549 cells assessed as nuclear condensation after 48 hrs by DAPI staining-based confocal microscopic analysis; assay type: functional, cell-based
A549 [4] = experiment: Induction of apoptosis in human A549 cells assessed as nuclear DNA fragmentation after 48 hrs by DAPI staining-based confocal microscopic analysis; assay type: functional, cell-based
[5] = target: DNA topoisomerase 2-alpha (Homo sapiens) (UniProt P11388); experiment: Inhibition of DNA topoisomerase-2 (unknown origin) assessed as inhibition of pBR322 DNA relaxation at 100 uM by agarose gel electrophoresis
A549 [6] = experiment: Cell cycle arrest in human A549 cells assessed as accumulation at G1 phase at 5 uM after 24 hrs by propidium iodide staining-based FACS flow cytometric analysis (reference value: 58.1%); assay type: functional
A549 [7] = experiment: Induction of apoptosis in human A549 cells assessed as appearance of round, short and dense microtubule networks after 48 hrs by confocal microscopic analysis; assay type: functional, cell-based
A549 [8] = experiment: Cell cycle arrest in human A549 cells assessed as accumulation at sub-G1 phase at 5 uM after 48 hrs by propidium iodide staining-based FACS flow cytometric analysis (reference value: 1.5%); assay type: functional
A549 [9] = experiment: Cell cycle arrest in human A549 cells assessed as accumulation at G2/M phase at 5 uM after 24 hrs by propidium iodide staining-based FACS flow cytometric analysis (reference value: 16.4%); assay type: functional
A549 [10] = experiment: Cell cycle arrest in human A549 cells assessed as accumulation at S phase at 5 uM after 24 hrs by propidium iodide staining-based FACS flow cytometric analysis (reference value: 25.5%); assay type: functional
A549 [11] = experiment: Cell cycle arrest in human A549 cells assessed as accumulation at S phase at 5 uM after 48 hrs by propidium iodide staining-based FACS flow cytometric analysis (reference value: 25.5%); assay type: functional
A549 [12] = experiment: Induction of apoptosis in human A549 cells assessed as cell shrinkage after 48 hrs by confocal microscopic analysis; assay type: functional, cell-based
A549 [13] = experiment: Cell cycle arrest in human A549 cells assessed as accumulation at G2/M phase at 5 uM after 48 hrs by propidium iodide staining-based FACS flow cytometric analysis (reference value: 16.4%); assay type: functional
A549 [14] = experiment: Cell cycle arrest in human A549 cells assessed as accumulation at G1 phase at 5 uM after 48 hrs by propidium iodide staining-based FACS flow cytometric analysis (reference value: 58.1%); assay type: functional
A549 [15] = experiment: Cell cycle arrest in human A549 cells assessed as accumulation at sub-G1 phase at 5 uM after 24 hrs by propidium iodide staining-based FACS flow cytometric analysis (reference value: 1.5%); assay type: functional

Sequence of DNA topoisomerase 2-alpha (Homo sapiens) (P11388 whole entry): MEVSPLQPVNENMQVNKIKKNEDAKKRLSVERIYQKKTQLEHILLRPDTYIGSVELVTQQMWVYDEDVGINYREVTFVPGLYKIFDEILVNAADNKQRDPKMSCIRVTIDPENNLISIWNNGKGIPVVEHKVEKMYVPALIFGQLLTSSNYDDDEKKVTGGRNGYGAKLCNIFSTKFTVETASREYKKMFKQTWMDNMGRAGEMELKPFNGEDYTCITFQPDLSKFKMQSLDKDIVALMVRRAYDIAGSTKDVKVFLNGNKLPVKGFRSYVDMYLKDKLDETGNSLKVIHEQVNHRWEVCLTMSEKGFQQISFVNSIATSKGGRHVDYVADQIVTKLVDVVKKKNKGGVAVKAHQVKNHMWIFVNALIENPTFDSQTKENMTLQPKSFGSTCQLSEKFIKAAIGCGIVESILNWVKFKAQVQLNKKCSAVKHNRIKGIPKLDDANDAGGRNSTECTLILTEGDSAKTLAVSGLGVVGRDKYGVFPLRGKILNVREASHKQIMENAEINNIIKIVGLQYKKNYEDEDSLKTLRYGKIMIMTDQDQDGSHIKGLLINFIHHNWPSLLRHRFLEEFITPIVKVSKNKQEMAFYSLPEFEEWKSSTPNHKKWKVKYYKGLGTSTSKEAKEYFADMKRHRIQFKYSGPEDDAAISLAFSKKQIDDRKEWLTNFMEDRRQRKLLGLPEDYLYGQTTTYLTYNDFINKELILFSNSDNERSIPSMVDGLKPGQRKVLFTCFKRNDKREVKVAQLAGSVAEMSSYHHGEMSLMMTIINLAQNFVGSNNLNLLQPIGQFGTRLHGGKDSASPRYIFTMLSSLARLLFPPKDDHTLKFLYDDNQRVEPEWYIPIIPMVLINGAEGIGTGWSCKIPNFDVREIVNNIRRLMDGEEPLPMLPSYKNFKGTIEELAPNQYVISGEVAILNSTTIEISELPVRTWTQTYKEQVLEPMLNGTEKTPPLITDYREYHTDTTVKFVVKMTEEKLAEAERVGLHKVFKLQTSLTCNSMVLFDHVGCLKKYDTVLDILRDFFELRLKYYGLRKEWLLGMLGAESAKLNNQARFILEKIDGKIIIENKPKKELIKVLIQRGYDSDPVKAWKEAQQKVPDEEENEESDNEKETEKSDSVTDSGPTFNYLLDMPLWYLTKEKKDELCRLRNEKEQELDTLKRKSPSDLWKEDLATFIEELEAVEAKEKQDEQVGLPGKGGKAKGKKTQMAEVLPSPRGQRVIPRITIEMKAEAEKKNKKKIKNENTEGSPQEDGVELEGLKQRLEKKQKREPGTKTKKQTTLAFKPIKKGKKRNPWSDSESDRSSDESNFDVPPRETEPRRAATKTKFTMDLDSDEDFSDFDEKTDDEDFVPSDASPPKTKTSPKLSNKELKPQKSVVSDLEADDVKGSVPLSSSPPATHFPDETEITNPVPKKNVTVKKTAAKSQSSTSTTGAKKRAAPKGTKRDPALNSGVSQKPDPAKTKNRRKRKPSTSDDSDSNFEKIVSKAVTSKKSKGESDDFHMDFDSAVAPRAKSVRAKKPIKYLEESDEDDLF

SMILES	IC50 (A549 [1]) [µM]	IC50 (HCT-8) [µM]	IC50 (HL-60) [nM]	IC50 (HeLa) [µM]	further results
COc1cc([C@@H]2c3cc4c(cc3[C@@H](n3cc(COC(=O)NC5CCCC5)nn3)[C@H]3COC(=O)[C@H]23)OCO4)cc(OC)c1OC	14.8	14.9	375	1.16	
COc1cc([C@@H]2c3cc4c(cc3[C@H](O)[C@H]3COC(=O)[C@H]23)OCO4)cc(OC)c1OC [PODOFILOX]					solubility [2]: soluble
COc1cc([C@@H]2c3cc4c(cc3[C@@H](n3cc(CO)nn3)[C@H]3COC(=O)[C@H]23)OCO4)cc(OC)c1OC	22.1	2.76	298	0.92	
CCCNC(=O)OCc1cn([C@@H]2c3cc4c(cc3[C@@H](c3cc(OC)c(OC)c(OC)c3)[C@H]3C(=O)OC[C@@H]32)OCO4)nn1	46.8	6.29	2770	7.42	
COc1cc([C@@H]2c3cc4c(cc3[C@@H](n3cc(COC(=O)NC5CCCC5)nn3)[C@H]3COC(=O)[C@H]23)OCO4)cc(OC)c1O	0.14	0.05	< 10	0.51	Activity (A549 [3]): Dose-dependent effect; Activity (A549 [4]): Dose-dependent effect; inhibition [5]: Active; Activity (A549 [6]): 43.1%; Activity (A549 [7]): Dose-dependent effect; Activity (A549 [8]): 26.8%; Activity (A549 [9]): 20.6%; Activity (A549 [10]): 36.3%; Activity (A549 [11]): 55.1%; Activity (A549 [12]): Dose-dependent effect; Activity (A549 [13]): 22.2%; Activity (A549 [14]): 22.7%; Activity (A549 [15]): 24.3%
COc1cc([C@@H]2c3cc4c(cc3[C@@H](n3cc(COC(=O)N5CCN(c6ccc(F)cc6)CC5)nn3)[C@H]3COC(=O)[C@H]23)OCO4)cc(OC)c1OC	22.1	1.47	< 10	3.84	
COc1cc([C@@H]2c3cc4c(cc3[C@@H](n3cc(COC(=O)N[C@@H](CCSC)C(=O)N5CCN(c6ccc([N+](=O)[O-])cc6)CC5)nn3)[C@H]3COC(=O)[C@H]23)OCO4)cc(OC)c1O	45.6	40.8	15700	10.3	solubility [2]: soluble
COc1cc([C@@H]2c3cc4c(cc3[C@@H](n3cc(COC(=O)N5CCN(c6ccc([N+](=O)[O-])cc6)CC5)nn3)[C@H]3COC(=O)[C@H]23)OCO4)cc(OC)c1O	5.58	6.15	320	3.5	solubility [2]: soluble
COc1cc([C@@H]2c3cc4c(cc3[C@@H](n3cc(COC(=O)N5CCN(c6ccc([N+](=O)[O-])cc6)CC5)nn3)[C@H]3COC(=O)[C@H]23)OCO4)cc(OC)c1OC	56.6	31.3	625	6.48	
COc1cc([C@@H]2c3cc4c(cc3[C@@H](n3cc(COC(=O)N5CCOCC5)nn3)[C@H]3COC(=O)[C@H]23)OCO4)cc(OC)c1O	1.46	0.37	45	0.03	
COc1cc([C@@H]2c3cc4c(cc3[C@@H](n3cc(COC(=O)N5CCOCC5)nn3)[C@H]3COC(=O)[C@H]23)OCO4)cc(OC)c1OC	23.3	2.05	629	35.7	
CCCNC(=O)OCc1cn([C@@H]2c3cc4c(cc3[C@@H](c3cc(OC)c(O)c(OC)c3)[C@H]3C(=O)OC[C@@H]32)OCO4)nn1	23	16.2	183	6.91	
COc1cc([C@@H]2c3cc4c(cc3[C@@H](O[C@@H]3O[C@@H]5CO[C@@H](C)O[C@H]5[C@H](O)[C@H]3O)[C@H]3COC(=O)[C@H]23)OCO4)cc(OC)c1O [ETOPOSIDE]	3.2	7.06	1150	2.91	inhibition [5]: Active
COc1cc([C@@H]2c3cc4c(cc3[C@@H](n3cc(COC(=O)N5CCN(C6CCCC6)CC5)nn3)[C@H]3COC(=O)[C@H]23)OCO4)cc(OC)c1OC	8.7	0.35	< 10	< 0.01	
